# Data: patent US10544150B2, “NK-3 receptor selective antagonist compounds, pharmaceutical composition and methods for use in NK-3 receptors mediated disorders” (Ogeda SA, priority 2010, dated 2020)
# Target: human NK-3 receptor (Homo sapiens (Human), UniProt P29371)
# Assay: 3H-SB222200 binding competition assay with human NK-3 receptor
# Settings: 3H-SB222200 displacement, CHO cell membranes expressing human NK3 receptor; read-out: Ki range
# Procedure, shortened: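 Membranes from CHO cells expressing human NK3 receptor incubated with 5 nM 3H-SB222200 and test compound in HEPES 25 mM/NaCl 0.1M/CaCl2 1 mM/MgCl2 5 mM/BSA 0.5%/saponin 10 μg/ml, pH 7.4. Bound radioligand counted after filtration; Ki calculated, reported in bands (+++ <500 nM to # >5 μM).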
# Chain of human NK-3 receptor (P29371 whole entry): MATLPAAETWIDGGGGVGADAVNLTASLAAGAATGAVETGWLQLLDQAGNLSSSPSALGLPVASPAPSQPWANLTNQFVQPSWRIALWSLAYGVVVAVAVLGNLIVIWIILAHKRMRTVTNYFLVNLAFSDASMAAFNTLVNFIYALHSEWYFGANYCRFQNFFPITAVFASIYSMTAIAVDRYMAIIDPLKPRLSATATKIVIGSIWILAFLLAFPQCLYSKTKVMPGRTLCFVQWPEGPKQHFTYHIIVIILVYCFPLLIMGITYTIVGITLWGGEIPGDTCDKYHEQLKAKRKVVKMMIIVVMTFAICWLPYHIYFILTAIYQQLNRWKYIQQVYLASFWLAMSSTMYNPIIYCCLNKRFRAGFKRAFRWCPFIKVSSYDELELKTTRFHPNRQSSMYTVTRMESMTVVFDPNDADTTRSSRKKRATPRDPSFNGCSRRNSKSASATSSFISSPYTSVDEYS
row,SMILES,Ki
1,"CC1Cn2c(nnc2-c2csc(-c3ccc(F)cc3)n2)CN1C(=O)c1ccc(-c2cccs2)cc1 (centres unmarked) [Compound 107, (3-(2-(4-fluorophenyl)thiazol-4-yl)-6-methyl-5,6-dihydro-[1,2,4]triazolo[4,3-a]pyrazin-7(8H)-yl)(4-(thiophen-2-yl)phenyl)methanone]",500 to 1000 nM
2,"O=C(c1ccc(-c2cccs2)cc1)N1CCn2c(nnc2-c2nc(-c3ccc(F)cc3F)no2)C1 [Compound 185, (3-(3-(2,4-difluorophenyl)-1,2,4-oxadiazol-5-yl)-5,6-dihydro-[1,2,4]triazolo[4,3-a]pyrazin-7(8H)-yl)(4-(thiophen-2-yl)phenyl)methanone]",> 5000 nM
3,"O=C(c1ccc(-c2cccs2)cc1)N1CCn2c(nnc2-c2csc(-c3ccc(N4CCOCC4)cc3)n2)C1 [Compound 239, (3-(2-(4-morpholinophenyl)thiazol-4-yl)-5,6-dihydro-[1,2,4]triazolo[4,3-a]pyrazin-7(8H)-yl)(4-(thiophen-2-yl)phenyl)methanone]",1000 to 5000 nM
4,"O=C(c1ccc(F)cc1)N1CCn2c(nnc2-c2nc(-c3ccc(F)cc3)no2)C1 [Compound 175, (4-fluorophenyl)(3-(3-(4-fluorophenyl)-1,2,4-oxadiazol-5-yl)-5,6-dihydro-[1,2,4]triazolo[4,3-a]pyrazin-7(8H)-yl)methanone]",< 500 nM
5,"O=C(c1ccc(F)cc1)N1CCn2c(nnc2-c2cc(-c3ccccc3)n[nH]2)C1 [Compound 269, (4-fluorophenyl)(3-(3-phenyl-1H-pyrazol-5-yl)-5,6-dihydro-[1,2,4]triazolo[4,3-a]pyrazin-7(8H)-yl)methanone]",500 to 1000 nM
6,"C[C@@H]1c2nnc(-c3csc(N4CCOCC4)n3)n2CCN1C(=O)c1ccc(-c2ccc(F)cc2)cc1 [Compound 134, (R)-(4′-fluoro-[1,1′-biphenyl]-4-yl)(8-methyl-3-(2-morpholinothiazol-4-yl)-5,6-dihydro-[1,2,4]triazolo[4,3-a]pyrazin-7(8H)-yl)methanone]",< 500 nM
7,"O=C(c1ccc(F)cc1)N1CCn2c(nnc2-c2n[nH]c(-c3ccccc3)n2)C1 [Compound 178, (4-fluorophenyl)(3-(5-phenyl-1H-1,2,4-triazol-3-yl)-5,6-dihydro-[1,2,4]triazolo[4,3-a]pyrazin-7(8H)-yl)methanone]",1000 to 5000 nM
8,"O=C(C1CCC(c2ccccc2)CC1)N1CCn2c(nnc2-c2ccc3ccccc3n2)C1 (centres unmarked) [Compound 93, (4-phenylcyclohexyl)(3-(quinolin-2-yl)-5,6-dihydro-[1,2,4]triazolo[4,3-a]pyrazin-7(8H)-yl)methanone]",1000 to 5000 nM
9,"O=C(c1ccc(-c2cccs2)cc1)N1CCn2c(nnc2-c2n[nH]c(-c3ccccc3)n2)C1 [Compound 179, (3-(5-phenyl-1H-1,2,4-triazol-3-yl)-5,6-dihydro-[1,2,4]triazolo[4,3-a]pyrazin-7(8H)-yl)(4-(thiophen-2-yl)phenyl)methanone]",< 500 nM
10,"Cc1cccc(-c2nnc3n2CCN(C(=O)c2ccc(-c4ccccc4)cc2)C3C)n1 (centres unmarked) [Compound 286, [1,1′-biphenyl]-4-yl(8-methyl-3-(6-methylpyridin-2-yl)-5,6-dihydro-[1,2,4]triazolo[4,3-a]pyrazin-7(8H)-yl)methanone]",< 500 nM
11,"CC(C)CC(=O)N1CCn2c(nnc2-c2ccc3ccccc3n2)C1 [Compound 95, 3-methyl-1-(3-(quinolin-2-yl)-5,6-dihydro-[1,2,4]triazolo[4,3-a]pyrazin-7(8H)-yl)butan-1-one]",1000 to 5000 nM
12,"O=C(c1ccc(F)cc1)N1CCn2c(nnc2-c2cccc(C(F)(F)F)n2)C1 [Compound 39, (4-fluorophenyl)(3-(6-(trifluoromethyl)pyridin-2-yl)-5,6-dihydro-[1,2,4]triazolo[4,3-a]pyrazin-7(8H)-yl)methanone]",500 to 1000 nM
13,"O=C(c1ccc(F)cc1)N1CCn2c(-c3csc(-c4ccccc4)n3)nnc2C1CCO (centres unmarked) [Compound 51, (4-fluorophenyl)(8-(2-hydroxyethyl)-3-(2-phenylthiazol-4-yl)-5,6-dihydro-[1,2,4]triazolo[4,3-a]pyrazin-7(8H)-yl)methanone]",< 500 nM
14,"CC1c2nnc(-c3csc(N4CCOCC4)n3)n2CCN1C(=O)c1ccc(F)cc1 (centres unmarked) [Compound 52, (4-fluorophenyl)(8-methyl-3-(2-morpholinothiazol-4-yl)-5,6-dihydro-[1,2,4]triazolo[4,3-a]pyrazin-7(8H)-yl)methanone]",< 500 nM
15,"CC1(C)c2nnc(-c3csc(-c4ccccc4)n3)n2CCN1C(=O)c1ccc(F)cc1 [Compound 60, (8,8-dimethyl-3-(2-phenylthiazol-4-yl)-5,6-dihydro-[1,2,4]triazolo[4,3-a]pyrazin-7(8H)-yl)(4-fluorophenyl)methanone]",< 500 nM
16,"O=C(c1ccc(-c2cccs2)cc1)N1CCn2c(nnc2-c2csc(-c3ccccn3)n2)C1 [Compound 224, (3-(2-(pyridin-2-yl)thiazol-4-yl)-5,6-dihydro-[1,2,4]triazolo[4,3-a]pyrazin-7(8H)-yl)(4-(thiophen-2-yl)phenyl)methanone]",< 500 nM

row,SMILES,Ki
1,"C[C@@H]1c2nnc(-c3ccc4ccccc4n3)n2CCN1C(=O)c1ccc(F)cc1 [Compound 115, (R)-(4-fluorophenyl)(8-methyl-3-(quinolin-2-yl)-5,6-dihydro-[1,2,4]triazolo[4,3-a]pyrazin-7(8H)-yl)methanone]",< 500 nM
2,"Cc1cccc(-c2nnc3n2CCN(C(=O)c2ccc(F)cc2)C3)n1 [Compound 11, (4-fluorophenyl)(3-(6-methylpyridin-2-yl)-5,6-dihydro-[1,2,4]triazolo[4,3-a]pyrazin-7(8H)-yl)methanone]",< 500 nM
3,"O=C(c1ccc(-c2ccccc2)cc1)N1CCn2c(nnc2-c2csc(-c3ccccc3)n2)C1 [Compound 26, [1,1′-biphenyl]-4-yl(3-(2-phenylthiazol-4-yl)-5,6-dihydro-[1,2,4]triazolo[4,3-a]pyrazin-7(8H)-yl)methanone]",< 500 nM
4,"Cc1ccc(-c2ccc(C(=O)N3CCn4c(-c5csc(-c6ccc(F)cc6)n5)nnc4C3C)cc2)s1 (centres unmarked) [Compound 215, (3-(2-(4-fluorophenyl)thiazol-4-yl)-8-methyl-5,6-dihydro-[1,2,4]triazolo[4,3-a]pyrazin-7(8H)-yl)(4-(5-methylthiophen-2-yl)phenyl)methanone]",< 500 nM
5,"O=C(c1ccc(-c2cccs2)cc1)N1CCn2c(nnc2-c2nc(-c3ccc(F)cc3F)no2)C1 [Compound 177, (3-(3-(2,4-difluorophenyl)-1,2,4-oxadiazol-5-yl)-5,6-dihydro-[1,2,4]triazolo[4,3-a]pyrazin-7(8H)-yl)(4-(thiophen-2-yl)phenyl)methanone]",< 500 nM
6,"CC1CN(c2nc(-c3nnc4n3CCN(C(=O)c3ccc(-c5cccs5)cc3)C4)cs2)CCO1 (centres unmarked) [Compound 273, (3-(2-(2-methylmorpholino)thiazol-4-yl)-5,6-dihydro-[1,2,4]triazolo[4,3-a]pyrazin-7(8H)-yl)(4-(thiophen-2-yl)phenyl)methanone]",< 500 nM
7,"Cc1sccc1-c1ccc(C(=O)N2CCn3c(-c4csc(-c5ccc(F)cc5)n4)nnc3[C@@H]2C)cc1 [Compound 233, (S)-(3-(2-(4-fluorophenyl)thiazol-4-yl)-8-methyl-5,6-dihydro-[1,2,4]triazolo[4,3-a]pyrazin-7(8H)-yl)(4-(2-methylthiophen-3-yl)phenyl)methanone]",< 500 nM
8,"O=C(c1cnc(-c2ccccc2)nc1)N1CCn2c(nnc2-c2ccc3ccccc3n2)C1 [Compound 92, (2-phenylpyrimidin-5-yl)(3-(quinolin-2-yl)-5,6-dihydro-[1,2,4]triazolo[4,3-a]pyrazin-7(8H)-yl)methanone]",1000 to 5000 nM
9,"COc1ccccc1-c1nc(-c2nnc3n2CCN(C(=O)c2ccc(-c4ccccc4)cc2)C3)cs1 [Compound 203, [1,1′-biphenyl]-4-yl(3-(2-(2-methoxyphenyl)thiazol-4-yl)-5,6-dihydro-[1,2,4]triazolo[4,3-a]pyrazin-7(8H)-yl)methanone]",500 to 1000 nM
10,"CC1c2nnc(-c3ccc4ccccc4n3)n2CCN1C(=O)c1ccc(F)cc1 (centres unmarked) [Compound 61, (4-fluorophenyl)(8-methyl-3-(quinolin-2-yl)-5,6-dihydro-[1,2,4]triazolo[4,3-a]pyrazin-7(8H)-yl)methanone]",< 500 nM
11,"O=C(c1ccc(F)cc1)N1CCn2c(nnc2-c2csc(-c3ccc(F)cc3)n2)C1 [Compound 32, (4-fluorophenyl)(3-(2-(4-fluorophenyl)thiazol-4-yl)-5,6-dihydro-[1,2,4]triazolo[4,3-a]pyrazin-7(8H)-yl)methanone]",< 500 nM
12,"N#Cc1ccc(-c2nc(-c3nnc4n3CCN(C(=O)c3ccc(-c5cccs5)cc3)C4)cs2)cc1 [Compound 236, 4-(4-(7-(4-(thiophen-2-yl)benzoyl)-5,6,7,8-tetrahydro-[1,2,4]triazolo[4,3-a]pyrazin-3-yl)thiazol-2-yl)benzonitrile]",< 500 nM
13,"O=C(c1ccc(F)cc1)N1CCn2c(nnc2-c2ccc3cccc(Cl)c3n2)C1 [Compound 23, (3-(8-chloroquinolin-2-yl)-5,6-dihydro-[1,2,4]triazolo[4,3-a]pyrazin-7(8H)-yl)(4-fluorophenyl)methanone]",500 to 1000 nM
14,"O=C(c1ccc(-c2cccs2)cc1)N1CCn2c(nnc2-c2noc(-c3ccccc3)n2)C1 [Compound 171, (3-(5-phenyl-1,2,4-oxadiazol-3-yl)-5,6-dihydro-[1,2,4]triazolo[4,3-a]pyrazin-7(8H)-yl)(4-(thiophen-2-yl)phenyl)methanone]",< 500 nM
15,"O=C(c1ccc(F)cc1)N1CCn2c(nnc2-c2ccccn2)C1 [Compound 1, (4-fluorophenyl)(3-(pyridin-2-yl)-5,6-dihydro-[1,2,4]triazolo[4,3-a]pyrazin-7(8H)-yl)methanone]",1000 to 5000 nM
16,"O=C(c1ccc(-c2ccc(F)cc2)cc1)N1CCn2c(nnc2-c2csc(Cn3cnc(Cl)c3Cl)n2)C1 [Compound 187, (3-(2-((4,5-dichloro-1H-imidazol-1-yl)methyl)thiazol-4-yl)-5,6-dihydro-[1,2,4]triazolo[4,3-a]pyrazin-7(8H)-yl)(4′-fluoro-[1,1′-biphenyl]-4-yl)methanone]",1000 to 5000 nM
